Experimental findings from patent US9636419B2, “Targeting multiple receptors on a cell surface for specific cell targeting” (The University of Kansas, priority 2013, dated 2017) are described below.

“Also recorded” adds a separate entry of the source. Non-standard residues stand in square brackets, D forms with d. *: point of attachment. Cholesteryloxycarbonyl = CC(C)CCC[C@@H](C)[C@H]1CC[C@H]2[C@@H]3CC=C4C[C@@H](OC(=O)*)CC[C@]4(C)[C@H]3CC[C@]12C; mPEG = not defined here; Aib = CC(C)(N)C(=O)O; βAla = NCCC(=O)O

Data set [1] concerns SKBR3 breast cancer cells. The data set can be described thus: Release of disulfide-linked fluorophore from EGF or Herceptin conjugates, confocal microscopy. The conditions noted are these: fluorophore linked via disulfide to Herceptin or EGF, ED86 at 10-fold higher concentration. It is filed as cell-based. The protocol:
In the middle panels, a non-targeted endosome disruptive peptide (ED86) was added. In the bottom panels, a targeted cholesterol modified endosome disruptive peptide (ED108) was added. […] In conjunction with our previous studies of disulfide-linked colchinol conjugates (see provisional application), these studies provide evidence that targeting of two distinct cell surface entities (e.g., two receptors or a receptor and membrane) with a cytotoxic conjugate and an endosome disruptive peptide can confer a synthetic lethal-type effect against cancer cell lines.

A further data set deals with PC3-PSMA cells. The data set can be described thus: Binding, uptake and co-localization of fluorophore-labeled aptamers (confocal microscopy, flow cytometry). It is filed as cell-based. The conditions noted are these: for internalization by cells: AF488-A9, DY650-E07; for colocalization in endosomes: aptamers combined, co-incubation 1 h. As to the method: To create targeted binary cytotoxins that selectively kill PSMA+/EGFR+ prostate cancer cells, the agents both accumulate in the same endosomal compartments.
Panels B-D show fluorescence micrographs of AF488-labled anti-PSMA apamer (Panel B) and a Dy650-labeled anti-EGFR aptamer (Panel C) following co-incubation with PC3-PSMA cells for 1 h. […] The binary agents are designed to selectively kill PSMA+/EGFR+ prostate cancer cells through the mechanism proposed here both accumulate in common endosomal compartments.

Data set [2] deals with SKBR3 breast cancer cells.
Experimental: Cellular viability was analyzed by flow cytometry after 72 h.

Regarding “H2N-(Aib)4-(Trp)2-Ala-Trp-Tyr-(Pro)2-Val-Val-CONH2 (H-[Aib][Aib][Aib][Aib]WWAWYPPVV-NH2; SMILES CC(C)[C@H](NC(=O)[C@@H](NC(=O)[C@@H]1CCCN1C(=O)[C@@H]1CCCN1C(=O)[C@H](Cc1ccc(O)cc1)NC(=O)[C@H](Cc1c[nH]c2ccccc12)NC(=O)[C@H](C)NC(=O)[C@H](Cc1c[nH]c2ccccc12)NC(=O)[C@H](Cc1c[nH]c2ccccc12)NC(=O)C(C)(C)NC(=O)C(C)(C)NC(=O)C(C)(C)NC(=O)C(C)(C)N)C(C)C)C(N)=O) [ED86]”, the “release of disulfide-linked fluorophore into cytoplasm” value in data set [1] is given as “release was not observed”.

For the substance “E07: EGFR-binding aptamer, 2′F RNA (GGACGGAUUUAAUCGCCGUAGAAAGCAUGUCAAAGCCGGAACCGUCC; 2'-fluoro modified RNA, pattern not given here) [Compound E07]”, in the data set with PC3-PSMA cells, the internalization by cells entry is on record as “internalized by PC3-PSMA cells” and the colocalization in endosomes result is “colocalize in endosomes”.

“A9: PSMA-binding aptamer, 2′F RNA (GGGACCGAAAAAGACCUGACUUCUAUACUAAGUCUACGUUCCC; 2'-fluoro modified RNA, pattern not given here) [Compound A9]”: in the data set on PC3-PSMA cells, the internalization by cells entry is given as “internalized by PC3-PSMA cells” and the colocalization in endosomes result was “colocalize in endosomes”.

In the case of “Cholesterol carbamate-(βAla)2-(Glu)2-mPEG-(βAla)4-(Aib)4-(Trp)2-Ala-Trp-Tyr-(Pro)2-Val-Val-CONH2 (Cholesteryloxycarbonyl-[βAla][βAla]EE[mPEG][βAla][βAla][βAla][βAla][Aib][Aib][Aib][Aib]WWAWYPPVV-NH2; reading uncertain) [ED108]”, the “effect on cytotoxicity of the Herceptin-colchinol methyl ether disulfide conjugate” value in data set [2] was “synergistically enhances cytotoxicity”. For the same substance, the “release of disulfide-linked fluorophore into cytoplasm” value in data set [1] was “Release of the fluorophore from EGF or Herceptin into the cytosol and nucleus was observed; also recorded: release of a disulfide-linked fluorophore from the antibody Herceptin into the cytoplasm”.
